The test system of data set [1] is GFP-NFAT-1 in HEK293 cells. Kind of data set: Inhibition of GFP-NFAT-1 nuclear translocation. The format is cell-based. The settings on record: 1 μM FK506 for 2 h, then 500 nM ionomycin 15 min; transfected HEK 293 cells; five independent experiments. Here is the method:
HEK293 cells (ATCC) were plated onto glass cover slips in 35-mm culture dishes. GFP-NFAT-1 plasmid[6] was transfected with Lipofectamine 2000 (ThermoFisher Scientific K.K., Yokohama, Japan). […] The nuclear fluorescence intensity was quantified using a Fluoview device (Olympus, Tokyo, Japan) and measured with AquaCosmos software (Hamamatsu Photonics). The fluorescent intensity of 10 cells was counted; five sets of experiments were conducted. Background fluorescent intensity was subtracted from all experiments.

Data set [2] concerns IL-2 protein in Jurkat cells. Kind of data set: Inhibition of the production of IL-2 (ELISA of supernatant). Particulars: 100 nM FK506, then PMA and ionomycin 12 h. The format is cell-based, human. Here is the method:
Jurkat cells (1 × 10^5) were treated with medium containing peptides or FK506, then incubated with the same amount of medium containing 200 nM PMA (Sigma-Aldrich) and 4 μM ionomycin for an additional 12 h. IL-2 protein was detected in the supernatant of cells using an ELISA kit according to the manufacturer’s instructions (eBioscience, San Diego, CA, USA).
(In general: An ELISA detects its analyte on a solid surface through an enzyme-linked reagent.)

For data set [3], the system named is βTC6 cells. Kind of data set: Insulin secretion in βTC6 cells (mouse insulin ELISA). The format is cell-based. Particulars: FK506 0.01, 0.1 and 1 μM for 97 h, p < 0.05 for 0.01 μM, p < 0.01 for 0.1 and 1 μM, dose-dependent. Here is the method: (§1) After 48, 96, or 144 hours, fresh medium was added; the samples taken to investigate the release of insulin were taken 1 hour later and assayed with a mouse insulin ELISA kit (Shibayagi, Shibukawa, Gunma, Japan).

The subject of data set [4] is isolated islets from BALB/c mice. Kind of data set: Insulin secretion in isolated islets (mouse insulin ELISA). The format is cell-based. The settings on record: FK506 0.01, 0.1 and 1 μM for 97 h, p < 0.05 for 0.01 μM, p < 0.01 for 0.1 and 1 μM, dose-dependent. As for the experimental part: as §1
The test system of data set [5] is secretion of insulin. Particulars: cited from earlier work. An excerpt:
An important mechanism whereby calcineurin promotes the activation of T cells and the induction of cytokine-related genes is largely attributed to a family of transcriptional regulators that are referred to as NFAT. The immunosuppressants cyclosporine A and FK506, which are used clinically to prevent transplant rejection, inhibit the activity of calcineurin phosphatase on all its protein substrates, including NFAT[1], [2].

SMILES strings stand for the structures.

With `C=CC[C@@H]1/C=C(\C)C[C@H](C)C[C@H](OC)[C@H]2O[C@@](O)(C(=O)C(=O)N3CCCC[C@H]3C(=O)O[C@H](/C(C)=C/[C@@H]3CC[C@@H](O)[C@H](OC)C3)[C@H](C)[C@@H](O)CC1=O)[C@H](C)C[C@@H]2OC` [FK506], the “Ionomycin-induced GFP-NFAT-1 nuclear translocation” value in data set [1] is “strong inhibition”. Besides, the “Production of IL-2” value in data set [2] was “completely inhibited”. Also, the Insulin secretion result in data set [3] and in data set [4] was “significantly inhibited” throughout. The Secretion of insulin entry in data set [5] is “dose-dependent decrease”.

These data come from publication PMC5465209 (Scientific Reports, 2017).
